This passage reports IC50 results from patent publication US20100216779A1 (GLAXOSMITHKLINE LLC, priority 2007, published 2010).

Holding throughout (assay type): cell-based
The test system of one assay is COLO205 (colon). Kind of assay: Inhibition of cell proliferation, CellTiter-Glo, COLO205. As to conditions: Homo sapiens, COLO 205, 72 h. In short, it runs like this: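 Exponentially growing COLO205 cells in medium with 10% FBS were plated below 2000 cells/well at 37 °C, 5% CO2. Untreated wells served as controls.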
In general terms: In ATP-based viability assays light output follows the ATP content of the culture.

The target in assay [1] is T1, human IGF-1R (NIH-3T3 cells over expressing human IGF-1R) (Homo sapiens, UniProt P08069).
T1 construct: expressed in transfected cells; host or cells: NIH-3T3 (mouse fibroblasts)
The assay is described as follows: IGF-1R cellular autophosphorylation (DELFIA). As to conditions: IGF-1 stimulated. In short, it runs like this: (§1)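 Read-out: DELFIA on lysates, receptor-specific capture antibody plus europium-labelled anti-phosphotyrosine, reported as % of IGF-1- or insulin-stimulated signal. Transfected NIH-3T3 cells got compound (30 uM–1.5 nM, 2 h) before a 15 min ligand pulse: IGF-1 30 ng/mL for IGF-1R, insulin 3 ug/mL for IR.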

The target of assay [2] is T2, IR (NIH-3T3 cells over expressing human IGF-1R or IR) (Homo sapiens, UniProt P06213).
T2 construct: expressed in transfected cells; host or cells: NIH-3T3 (mouse fibroblasts)
Kind of assay: IR cellular autophosphorylation (DELFIA). Particulars: NIH-3T3 cells over expressing IR, insulin stimulated. The gist of the method: as §1

What is called IC50 is the concentration needed to halve the response being measured. Read a low IC50 as greater potency in that assay.

T1 sequence (P08069 31-1367): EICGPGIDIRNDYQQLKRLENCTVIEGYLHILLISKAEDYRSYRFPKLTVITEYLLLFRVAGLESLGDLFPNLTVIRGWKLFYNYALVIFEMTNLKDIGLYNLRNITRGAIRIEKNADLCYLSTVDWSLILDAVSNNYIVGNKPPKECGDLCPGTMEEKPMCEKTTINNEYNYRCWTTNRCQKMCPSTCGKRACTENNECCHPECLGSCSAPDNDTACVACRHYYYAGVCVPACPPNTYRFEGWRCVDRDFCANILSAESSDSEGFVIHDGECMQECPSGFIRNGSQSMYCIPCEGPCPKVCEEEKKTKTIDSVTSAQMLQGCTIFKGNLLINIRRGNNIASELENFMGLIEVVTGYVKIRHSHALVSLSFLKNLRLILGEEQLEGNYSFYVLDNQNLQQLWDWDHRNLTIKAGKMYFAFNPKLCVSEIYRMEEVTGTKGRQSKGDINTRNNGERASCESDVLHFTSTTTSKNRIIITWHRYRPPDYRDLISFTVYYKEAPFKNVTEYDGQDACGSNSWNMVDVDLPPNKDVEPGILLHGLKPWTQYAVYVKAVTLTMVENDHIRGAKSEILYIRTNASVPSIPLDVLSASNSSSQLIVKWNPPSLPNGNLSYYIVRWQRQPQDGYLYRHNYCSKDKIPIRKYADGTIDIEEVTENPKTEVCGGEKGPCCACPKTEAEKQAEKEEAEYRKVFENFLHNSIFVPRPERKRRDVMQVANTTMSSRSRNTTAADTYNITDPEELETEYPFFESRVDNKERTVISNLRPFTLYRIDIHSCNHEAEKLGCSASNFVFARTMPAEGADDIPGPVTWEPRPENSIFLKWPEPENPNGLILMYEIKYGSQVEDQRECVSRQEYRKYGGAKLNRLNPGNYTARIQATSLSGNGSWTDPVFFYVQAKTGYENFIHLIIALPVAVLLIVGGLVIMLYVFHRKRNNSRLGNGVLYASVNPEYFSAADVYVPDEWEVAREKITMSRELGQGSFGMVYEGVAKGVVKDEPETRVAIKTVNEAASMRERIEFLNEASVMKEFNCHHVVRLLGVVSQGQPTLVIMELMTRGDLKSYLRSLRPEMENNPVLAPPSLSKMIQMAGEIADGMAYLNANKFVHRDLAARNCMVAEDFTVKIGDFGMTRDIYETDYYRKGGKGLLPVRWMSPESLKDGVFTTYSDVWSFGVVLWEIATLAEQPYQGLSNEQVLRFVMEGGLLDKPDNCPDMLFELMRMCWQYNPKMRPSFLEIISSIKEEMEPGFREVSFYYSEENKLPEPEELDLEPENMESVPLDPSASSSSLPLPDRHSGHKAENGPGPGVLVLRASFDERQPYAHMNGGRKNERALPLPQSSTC
T2 sequence (P06213 28-1382): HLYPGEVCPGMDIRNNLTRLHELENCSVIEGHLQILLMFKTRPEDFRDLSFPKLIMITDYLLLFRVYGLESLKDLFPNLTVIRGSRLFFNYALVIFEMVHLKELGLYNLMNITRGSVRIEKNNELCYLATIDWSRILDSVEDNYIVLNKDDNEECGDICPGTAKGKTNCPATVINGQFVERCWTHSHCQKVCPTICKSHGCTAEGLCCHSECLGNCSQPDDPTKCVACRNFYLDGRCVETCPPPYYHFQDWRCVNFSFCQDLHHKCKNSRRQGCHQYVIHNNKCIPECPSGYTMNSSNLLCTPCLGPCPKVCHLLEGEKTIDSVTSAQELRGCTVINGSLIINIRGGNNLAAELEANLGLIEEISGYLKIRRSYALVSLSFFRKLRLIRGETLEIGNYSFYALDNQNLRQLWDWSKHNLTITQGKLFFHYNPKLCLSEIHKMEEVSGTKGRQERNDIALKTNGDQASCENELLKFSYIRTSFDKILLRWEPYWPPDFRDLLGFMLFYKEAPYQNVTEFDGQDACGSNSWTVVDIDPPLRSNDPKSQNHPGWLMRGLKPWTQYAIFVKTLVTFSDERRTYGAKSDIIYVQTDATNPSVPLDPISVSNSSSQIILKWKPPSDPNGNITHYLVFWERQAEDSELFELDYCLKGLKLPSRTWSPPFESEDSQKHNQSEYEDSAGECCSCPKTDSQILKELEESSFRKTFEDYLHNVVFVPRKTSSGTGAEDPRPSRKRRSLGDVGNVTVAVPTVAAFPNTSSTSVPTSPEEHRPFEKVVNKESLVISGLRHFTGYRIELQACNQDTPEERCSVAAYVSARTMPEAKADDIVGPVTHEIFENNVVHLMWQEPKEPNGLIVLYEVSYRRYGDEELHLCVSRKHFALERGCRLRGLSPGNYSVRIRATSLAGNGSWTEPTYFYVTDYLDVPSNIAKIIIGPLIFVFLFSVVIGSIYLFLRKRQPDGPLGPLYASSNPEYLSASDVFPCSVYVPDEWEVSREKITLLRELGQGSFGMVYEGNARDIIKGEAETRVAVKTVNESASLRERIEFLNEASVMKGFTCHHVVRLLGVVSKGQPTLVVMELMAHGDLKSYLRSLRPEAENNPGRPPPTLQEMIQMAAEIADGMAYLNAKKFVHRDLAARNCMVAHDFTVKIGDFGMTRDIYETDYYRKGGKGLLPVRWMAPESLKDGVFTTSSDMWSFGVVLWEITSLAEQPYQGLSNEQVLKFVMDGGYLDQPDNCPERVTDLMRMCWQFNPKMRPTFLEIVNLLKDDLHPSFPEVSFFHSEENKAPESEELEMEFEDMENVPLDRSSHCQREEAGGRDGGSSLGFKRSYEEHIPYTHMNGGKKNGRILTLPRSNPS

`COc1cc(CCCN2CCCCC2)ccc1Nc1nccc(-c2c(-c3cccc(C(=O)Nc4c(F)cccc4F)c3)nc3ccccn23)n1` [Example 139, N-(2,6-difluorophenyl)-3-{3-[2-({2-(methyloxy)-4-[3-(1-piperidinyl)propyl]phenyl}amino)-4-pyrimidinyl]imidazo[1,2-a]pyridin-2-yl}benzamide]: the IC50 in the assay on COLO205 (colon) is 250 to 1000 nM; in assay [1], less than 100 nM; in assay [2] it was 100 to 500 nM.

For the molecule `COc1cc(N2CCC(N3CCCCCC3)CC2)ccc1Nc1nccc(-c2c(-c3cccc(C(=O)Nc4c(F)cccc4F)c3)nc3ccccn23)n1` [Example 50, N-(2,6-difluorophenyl)-3-[3-(2-{[4-[4-(hexahydro-1H-azepin-1-yl)-1-piperidinyl]-2-(methyloxy)phenyl]amino}-4-pyrimidinyl)imidazo[1,2-a]pyridin-2-yl]benzamide], the IC50 in the assay on COLO205 (colon) is 250 to 1000 nM; in assay [1], less than 100 nM; in assay [2], less than 100 nM.

`COc1cc(C2CCN(CCF)CC2)ccc1Nc1nccc(-c2c(-c3ccc(OC)c(C(=O)Nc4c(F)cccc4F)c3)nc3ccccn23)n1` [Example 179, N-(2,6-difluorophenyl)-5-[3-(2-{[4-[1-(2-fluoroethyl)-4-piperidinyl}-2-(methyloxy)phenyl]-amino}-4-pyrimidinyl)imidazo[1,2-a]pyridin-2-yl]-2-(methyloxy)benzamide]: the IC50 is 250 to 1000 nM with COLO205 (colon), less than 100 nM in assay [1] and less than 100 nM in assay [2].

As for `COc1ccn2c(-c3ccnc(Nc4ccc(N5CCC(N6CCCCC6)CC5)cc4OC)n3)c(-c3cccc(C(=O)Nc4c(F)cccc4F)c3)nc2c1` [Example 39, 3-[3-(2-{[4-(1,4′-bipiperidin-1′-yl)-2-(methyloxy)phenyl]amino}-4-pyrimidinyl)-7-(methyloxy)imidazo[1,2-a]pyridin-2-yl]-N-(2,6-difluorophenyl)benzamide], the IC50 with COLO205 (colon) was more than 1000 nM; in assay [1] it was less than 100 nM; in assay [2], 100 to 500 nM.

Regarding `COc1cc(N2CCN(C3CCN(CCS(C)(=O)=O)CC3)CC2)ccc1Nc1nccc(-c2c(-c3cccc(C(=O)Nc4c(F)cccc4F)c3)nc3ccccn23)n1` [Example 89, N-(2,6-difluorophenyl)-3-[3-(2-{[2-(methyloxy)-4-(4-{1-[2-(methylsulfonyl)ethyl]-4-piperidinyl}-1-piperazinyl)phenyl]amino}-4-pyrimidinyl)imidazo[1,2-a]pyridin-2-yl]benzamide], the IC50 with COLO205 (colon) was less than 250 nM; in assay [1], less than 100 nM; in assay [2], less than 100 nM.

Turning to `CCOc1cc(N2CCN(C3CCN(CCS(C)(=O)=O)CC3)CC2)ccc1Nc1nccc(-c2c(-c3cccc(C(=O)Nc4c(F)cccc4F)c3)nc3ccccn23)n1` [Example 92, N-(2,6-difluorophenyl)-3-[3-(2-{[2-(ethyloxy)-4-(4-{1-[2-(methylsulfonyl)ethyl]-4-piperidinyl}-1-piperazinyl)phenyl]amino]-4-pyrimidinyl)imidazo[1,2-a]pyridin-2-yl]benzamide], the IC50 in the assay on COLO205 (colon) was less than 250 nM; in assay [1], less than 100 nM; in assay [2], less than 100 nM.

For the molecule `COc1cc(N2CCC(O)CC2)ccc1Nc1nccc(-c2c(-c3cccc(C(=O)Nc4c(F)cccc4F)c3)nc3ccccn23)n1` [Example 73, N-(2,6-difluorophenyl)-3-[3-(2-{[4-(4-hydroxy-1-piperidinyl)-2-(methyloxy)phenyl]amino}-4-pyrimidinyl)imidazo[1,2-a]pyridin-2-yl]benzamide], the IC50 in the assay on COLO205 (colon) is 250 to 1000 nM; in assay [1] it was less than 100 nM; in assay [2], 100 to 500 nM.

Turning to `CC(C)COc1cc(N2CCC(N3CCCCC3)CC2)ccc1Nc1nccc(-c2c(-c3cccc(C(=O)Nc4c(F)cccc4F)c3)nc3ccccn23)n1` [Example 32, 3-{3-[2-({4-(1,4′-bipiperidin-1′-yl)-2-[(2-methylpropyl)oxy]phenyl}amino)-4-pyrimidinyl]imidazo[1,2-a]pyridin-2-yl}-N-(2,6-difluorophenyl)benzamide], the IC50 was 250 to 1000 nM in the assay on COLO205 (colon), more than 500 nM in assay [1] and more than 500 nM in assay [2].

For the molecule `CCc1cc(N2CCC(N3CCCCC3)CC2)ccc1Nc1nccc(-c2c(-c3cccc(C(=O)Nc4c(F)cccc4F)c3)nc3ccccn23)n1` [Example 40, 3-[3-(2-{[4-(1,4′-bipiperidin-1′-yl)-2-ethylphenyl]amino}-4-pyrimidinyl)imidazo[1,2-a]pyridin-2-yl]-N-(2,6-difluorophenyl)benzamide], the values for the IC50 (in the assay on COLO205 (colon); in assay [1]; in assay [2]) were 250 to 1000 nM, less than 100 nM and 100 to 500 nM, respectively.

In the case of `COc1cc(N2CCC(N3CCCCC3)CC2)ccc1Nc1nccc(-c2c(-c3ccc(OC)c(C(=O)Nc4c(F)cccc4F)c3)nc3cc(C)ccn23)n1` [Example 4, 5-[3-(2-{[4-(1,4′-bipiperidin-1′-yl)-2-(methyloxy)phenyl]amino}-4-pyrimidinyl)-7-methylimidazo[1,2-a]pyridin-2-yl]-N-(2,6-difluorophenyl)-2-(methyloxy)benzamide], the values for the IC50 (in the assay on COLO205 (colon); in assay [1]; in assay [2]) were 250 to 1000 nM, less than 100 nM and less than 100 nM, respectively.

Regarding `COc1cc(N2CCC(CN3CCCCC3)CC2)ccc1Nc1nccc(-c2c(-c3cccc(C(=O)Nc4c(F)cccc4F)c3)nc3ccccn23)n1` [Example 36, N-(2,6-difluorophenyl)-3-{3-[2-({2-(methyloxy)-4-[4-(1-piperidinylmethyl)-1-piperidinyl]phenyl}amino)-4-pyrimidinyl]imidazo[1,2-a]pyridin-2-yl}benzamide], the IC50 was 250 to 1000 nM in the assay with COLO205 (colon), less than 100 nM in assay [1] and less than 100 nM in assay [2].

`COc1ccc(-c2nc3cc(C)ccn3c2-c2ccnc(Nc3cccc(OCCN(C)C)c3)n2)cc1C(=O)Nc1c(F)cccc1F` [Example 2, N-(2,6-difluorophenyl)-5-(3-{2-[(3-{[2-(dimethylamino)ethyl]oxy}phenyl)amino]-4-pyrimidinyl}-7-methylimidazo[1,2-a]pyridin-2-yl)-2-(methyloxy)benzamide]: the IC50 was 250 to 1000 nM with COLO205 (colon), more than 500 nM in assay [1] and more than 500 nM in assay [2].

As to `COc1ccn2c(-c3ccnc(Nc4ccc(N5CCC(N6CCN(CCF)CC6)CC5)cc4OC)n3)c(-c3cccc(C(=O)Nc4c(F)cccc4F)c3)nc2c1` [Example 62, N-(2,6-difluorophenyl)-3-[3-(2-{[4-{4-[4-(2-fluoroethyl)-1-piperazinyl]-1-piperidinyl}-2-(methyloxy)phenyl]amino}-4-pyrimidinyl)-7-(methyloxy)imidazo[1,2-a]pyridin-2-yl]benzamide], the IC50 is 250 to 1000 nM with COLO205 (colon), less than 100 nM in assay [1] and less than 100 nM in assay [2].

Turning to `Cn1cc(-c2cccc(Nc3nccc(-c4c(-c5cccc(C(=O)Nc6c(F)cccc6F)c5)nc5ccccn45)n3)c2)cn1` [Example 11, N-(2,6-difluorophenyl)-3-[3-(2-{[3-(1-methyl-1H-pyrazol-4-yl)phenyl]amino}-4-pyrimidinyl)imidazo[1,2-a]pyridin-2-yl]benzamide], the IC50 in the assay with COLO205 (colon) lay within 250 to 1000 nM; in assay [1], 100 to 500 nM; in assay [2] it was 100 to 500 nM.

For `CCCOc1cc(N2CCC(N3CCCCC3)CC2)ccc1Nc1nccc(-c2c(-c3cccc(C(=O)Nc4c(F)cccc4F)c3)nc3ccccn23)n1` [Example 33, 3-[3-(2-{[4-(1,4′-bipiperidin-1′-yl)-2-(propyloxy)phenyl]amino}-4-pyrimidinyl)imidazol[1,2-a]pyridin-2-yl]-N-(2,6-difluorophenyl)benzamide], the figures for the IC50 (in the assay on COLO205 (colon); in assay [1]; in assay [2]) were 250 to 1000 nM, less than 100 nM and 100 to 500 nM, respectively.

For the molecule `COc1cc(N2CCC(CN3CCN(C)CC3)CC2)ccc1Nc1nccc(-c2c(-c3cccc(C(=O)Nc4c(F)cccc4F)c3)nc3ccccn23)n1` [Example 37, N-(2,6-difluorophenyl)-3-(3-{2-[(2-(methyloxy)-4-{4-[(4-methyl-1-piperazinyl)methyl]-1-piperidinyl}phenyl)amino]-4-pyrimidinyl}imidazo[1,2-a]pyridin-2-yl)benzamide], the IC50 in the assay with COLO205 (colon) was 250 to 1000 nM; in assay [1] it was less than 100 nM; in assay [2] it was less than 100 nM.

Turning to `COc1cc(N2CCC[C@H](O)C2)ccc1Nc1nccc(-c2c(-c3cccc(C(=O)Nc4c(F)cccc4F)c3)nc3ccccn23)n1` [Example 169, N-(2,6-difluorophenyl)-3-[3-(2-{[4-[(3S)-3-hydroxy-1-piperidinyl]-2-(methyloxy)phenyl]amino}-4-pyrimidinyl)imidazo[1,2-a]pyridin-2-yl]benzamide], the IC50 in the assay with COLO205 (colon) lay in the range of 250 to 1000 nM; in assay [1], 100 to 500 nM; in assay [2], 100 to 500 nM.

Turning to `COc1cc(N2CCC(N3CCC[C@H](O)C3)CC2)ccc1Nc1nccc(-c2c(-c3cccc(C(=O)Nc4c(F)cccc4F)c3)nc3ccccn23)n1` [Example 83, N-(2,6-difluorophenyl)-3-[3-(2-{[4-[(3S)-3-hydroxy-1,4′-bipiperidin-1′-yl]-2-(methyloxy)phenyl]amino}-4-pyrimidinyl)imidazo[1,2-a]pyridin-2-yl]benzamide], the IC50 in the assay with COLO205 (colon) is 250 to 1000 nM; in assay [1], less than 100 nM; in assay [2], 100 to 500 nM.

Regarding `COc1cc(N2CCN(CCS(C)(=O)=O)CC2)ccc1Nc1nccc(-c2c(-c3cccc(C(=O)Nc4c(F)cccc4F)c3)nc3ccccn23)n1` [Example 136, N-(2,6-difluorophenyl)-3-(3-{2-[(2-(methyloxy)-4-{4-[2-(methylsulfonyl)ethyl]-1-piperazinyl}phenyl)amino]-4-pyrimidinyl}imidazo[1,2-a]pyridin-2-yl)benzamide], the IC50 with COLO205 (colon) was 250 to 1000 nM; in assay [1], less than 100 nM; in assay [2], less than 100 nM.
